# Laboratory results from publication PMC4336141, “Repurposing Auranofin as a Lead Candidate for Treatment of Lymphatic Filariasis and Onchocerciasis” (PLoS Neglected Tropical Diseases, 2015).
# Entries after “also recorded” stand apart in the source; their conditions may differ.
# Key:
# L. loa microfilariae = experiment: Loa loa microfilariae motility in vitro; type: cell-based; conditions: Day 5
# Experimental: Loa loa microfilariae were purified from the blood of a heavily infected subject (having approximately 10,000 microfilariae/mL of blood) using Percoll (GE Healthcare, Piscataway, NJ) gradient centrifugation. Venous blood (10 mL) was collected from consenting, infected individuals in an EDTA tube. The blood was layered on a step-wise Percoll gradient (46% and 43% Percoll prepared in CCM) followed by centrifugation at 400 rcf for 20 minutes. The L. loa microfilariae were recovered in the 43% layer, washed 3 times in CCM and counted.
# Microfilariae (10–15 per well) were cultured in 96-well culture plates in duplicate under the same conditions and drug concentrations as were used for the adult O. ochengi, except that 10 μg/mL ivermectin was used as a positive control. Microfilariae viability was visually scored based on motility reduction using the same scale described above for adult male O. ochengi. Scores were recorded every 24 hours after the addition of drugs for 5 days using an inverted microscope.
# B. pahangi = experiment: Worm retrieval from B. pahangi infected gerbils treated orally; type: in vivo, Mongolian gerbils (Meriones unguiculatus); conditions: for reduction in worm burden: 48 doses over 28 days, vs vehicle
# Experimental: Animal studies were performed under IACUC approval #AN085723–02 to test the efficacy of auranofin in vivo. Male Mongolian gerbils (Meriones unguiculatus, Charles River Laboratories International, Inc., Wilmington, MA) were injected intraperitoneally (IP) with 300 B. pahangi L3 (Filariatech, Inc., Athens, GA) and treated 3 months post-infection. Auranofin was dissolved in 100% ethanol at 4 mg/mL and mixed 1:1 with PBS. Vehicle doses consisted of the same mixture of ethanol and PBS but without auranofin. Doses (up to 200 μl) were given to gerbils orally at 5 mg/kg body weight, BID weekdays and SID weekends for a total of 48 doses over 4 weeks.
# Two studies (Study 1 and Study 2) were conducted using the same protocols and the same dosing schedule except that in Study 1, two gerbils from the auranofin treatment group and two gerbils from the vehicle group were treated for 14 days and were necropsied 2 hours after their last dose (interim necropsy) to determine plasma gold levels (from auranofin). The remaining gerbils in Study 1 were treated for 28 days and were necropsied 11, 14, or 16 days after the end of dosing. In Study 2, all gerbils were treated for 28 days and were necropsied 16 days after the end of dosing. For both of these in vivo studies, worms were collected from the gerbil’s peritoneal cavity, counted, sexed and examined under a dissecting microscope. For each study a two-tailed Student’s T-test assuming equal variance was conducted using Microsoft Excel to determine the statistical significance of the difference in mean worm retrieval between the auranofin treated and vehicle treated groups. Gerbil blood was collected by cardiac puncture and plasma was sent to NMS Labs, Willow Grove, PA to determine plasma gold levels (elemental gold analysis) by graphite furnace atomic absorption spectroscopy.
# [1] = tested on: endogenous Brugia thioredoxin reductase; experiment: Thioredoxin reductase activity of lysates of female B. malayi treated in vitro; type: biochemical, Brugia malayi; conditions: 5 hours in vitro, female worms, soluble lysate
# Experimental: (§1) Thioredoxin reductase activity of worm lysates was assayed using female B. malayi treated in vitro with either 0.3 μM, 0.1 μM, or 0.03 μM auranofin or 1% DMSO. After 5 hours of treatment, worm motility was measured using the Worminator, and then worms (24 in each group) were pooled, washed three times in PBS, and lysed by douncing in a glass homogenizer in assay buffer (Abcam Thioredoxin Reductase Assay kit, ab83463) with 1 mM PMSF. The crude lysates were centrifuged at 10,000 rcf for 15 minutes at 4°C to pellet insoluble material. The total protein concentrations of soluble lysates were measured using the Bradford assay. The soluble lysates were incubated for 20 minutes in assay buffer or assay buffer with a proprietary thioredoxin reductase specific inhibitor before adding a specific substrate, DTNB (5, 5′-dithiobis (2-nitrobenzoic) acid), and measuring activity at 20 second intervals for 40 minutes using the SpectraMax Plus Microplate Reader (Molecular Devices, Sunnyvale, CA) at λ = 412 nm. Lysates were tested in duplicate. TrxR activity was calculated based on the linear amount of TNB produced per minute per mg of total protein and adjusted for background activity from enzymes other than TrxR in the lysates.
# [2] = tested on: endogenous Brugia thioredoxin reductase; experiment: Thioredoxin reductase activity of lysates of worms recovered from gerbils treated in vivo
# Experimental: as §1
# Thioredoxin reductase activity was also analyzed in worms that were treated with auranofin or vehicle in vivo. […]
# adult female B. pahangi = experiment: Transmission electron microscopy of treated adult female B. pahangi; type: cell-based, Brugia pahangi; conditions: auranofin 1 μM, 0.3 μM or 0.1 μM overnight, vs 1% DMSO
# Experimental: Adult female B. pahangi worms were incubated with either 1 μM, 0.3 μM, or 0.1 μM auranofin, 10 μM flubendazole (as a positive control), or 1% DMSO overnight, then cut into 3 segments separating the anterior, middle and posterior sections. The middle sections were further cut into 1 mm sized pieces in fixative (2.5% glutaraldehyde and 2% paraformaldehyde in 0.1 M sodium cacodylate buffer, pH 7.3–7.4) and stored at 4°C. Middle sections were subsequently treated with 1% tannic acid for 1 hour, followed by three buffer washes before post fixation staining with 2% osmium tetroxide for 1 hour. The samples were washed three times in buffer before dehydration in an ethanol series. Worm sections were then infiltrated with propylene oxide, embedded in epon 812 resin and polymerized in a vacuum oven at 60°C overnight. Ultrathin sections were cut using an RMC MTX ultramicrotome with a Diatome diamond knife followed by post staining of the grids with saturated ethanolic uranyl acetate and Reynolds lead citrate. Samples were imaged on a FEI Tecnai 12 spirit TEM operated at 80 kV. A similar procedure was performed on adult female O. ochengi worm masses that were cultured for 7 days with 10 μM auranofin before fixation of cut pieces of the adult female mass. Untreated adult female masses cultured for 7 days and fixed by the same procedure served as the control.
# [3] = tested on: cysteine protease cathepsin B; design: method as in PMID 16789749; conditions: cited from earlier work
# glutathione peroxidase = molecular target: glutathione peroxidase; design: method as in PMID 9685351; conditions: higher IC50; cited from earlier work
# [4] = Study 1 interim necropsy, 14 days of treatment
smiles,measurement,setting,value
"CC[PH](CC)(CC)[Au][S][C@@H]1O[C@H](COC(C)=O)[C@@H](OC(C)=O)[C@H](OC(C)=O)[C@H]1OC(C)=O [auranofin, 2,3,4,6-tetra-O-acetyl-1-thio-beta-D-glucopyranosato-S (triethylphosphine) gold]",IC50,L. loa microfilariae,12.8 µM
same,reduction in worm burden,"B. pahangi; Study 1, 5 mg/kg oral, not statistically significant (p > 0.05)",58%
same,average number of worms,"B. pahangi; Study 1, all treated animals (n = 9), vehicle 9.4",4.0 worms
same,female worms,B. pahangi; [4],7
same,male worms,B. pahangi; [4],4
same,total number of worms,"B. pahangi; Study 1 interim necropsy, 14 days of treatment, two gerbils, vehicle 43",11
same,male worms recovered,B. pahangi; Study 2,11
same,reduction in worm burden,"B. pahangi; Study 2, 5 mg/kg oral, necropsy 16 days after end of dosing, p = 0.01",91%
same,female worms recovered,"B. pahangi; Study 2, remaining female encapsulated with host tissue",1
same,mean worms per gerbil,"B. pahangi; Study 2, vehicle 32",3 worms per gerbil
same,total worms recovered,"B. pahangi; Study 2, vehicle 161",12
same,"Thioredoxin reductase activity, percent of DMSO control",[1]; 0.03 μM,69%
same,"Thioredoxin reductase activity, percent of DMSO control",[1]; 0.1 μM,33%
same,"Thioredoxin reductase activity, percent of DMSO control",[1]; 0.3 μM,15%
same,"Thioredoxin reductase activity, percent of vehicle control",[2]; worms collected 16 days after the last dose from treated gerbils,51%
same,reduction of endogenous thioredoxin reductase activity vs vehicle,[2]; worms removed 16 days after the last dose from gerbils treated 28 days,49%
same,ultrastructure (TEM) of adult female B. pahangi,adult female B. pahangi,considerable damage in the hypodermal region; also recorded: extensive damage to Wolbachia in the hypodermal area
same,IC50,[3],~250 µM
same,IC50 relative to TrxR isolated from human placenta,glutathione peroxidase,about 1000 fold
